Tests used:
P. falciparum PanK = assay: [14C]pantothenate phosphorylation assay with P. falciparum lysate; assay type: biochemical, Plasmodium falciparum; conditions: 100 µM pantothenamide, 0.2 µM [14C]pantothenate, 10 min
Procedure: To assess the effect of the pantothenamides on pantothenate phosphorylation by P. falciparum PanK, the phosphorylation of [^14C]pantothenate by P. falciparum lysates was measured in the presence and absence of a single concentration of each pantothenamide. P. falciparum lysate was prepared from trophozoite stage parasites “isolated” from their host erythrocyte by treatment with 0.05% (w/v) saponin (essentially as described by Saliba et al.), and washed (five times) in HEPES-buffered saline (125 mM NaCl, 5 mM KCl, 20 mM D-glucose, 25 mM HEPES, 1 mM MgCl2, pH 7.1). Lysates were prepared as described by van Schalkwyk et al., except that 10 mM potassium phosphate, pH 7.4 (rather than 10 mM Tris, pH 7.4), was used to lyse the cells. Aliquots of lysate were stored at −20°C. The concentration of cell lysates was determined from cell counts made using an improved Neubauer hemocytometer.
[^14C]Pantothenate phosphorylation was assayed using the Somogyi reagent essentially as described by Saliba et al., except that pantothenate phosphorylation was terminated by heat denaturation (rather than acid denaturation) of the protein in reaction aliquots. Briefly, P. falciparum lysate was added to solutions (at 37°C) of 50 mM Tris, 5 mM ATP, 5 mM MgCl2, at pH 7.4, containing [^14C]pantothenate (at a final concentration of 0.01 µCi/mL, or 0.2 µM), and a pantothenamide (at a final concentration of 100 µM) or an equivalent volume of solvent. Typically, lysate prepared from 5.4–6.5×10^7 parasites was present in each mL of reaction solution. Zero phosphorylation control reactions were prepared by adding a corresponding volume of 10 mM potassium phosphate instead of parasite lysate. Following a ten minute incubation at 37°C (a period during which pantothenate phosphorylation increased linearly with time in the absence of inhibitors) 200 µL aliquots of the [^14C]pantothenate phosphorylation reactions were transferred in duplicate to microcentrifuge tubes, and immediately incubated at 95°C for 10 min to terminate phosphorylation. Terminated reaction samples were centrifuged at 15 800×g for 10 min to pellet the denatured protein, before two aliquots of each supernatant (typically 80 µL) were transferred to new microcentrifuge tubes. To one aliquot, 500 µL Somogyi reagent was added, and to the other, 500 µL water was added. The samples were processed for determination of phosphorylated [^14C]pantothenate as described previously.

[1] = target: T1, recombinant human pantetheinase (Vanin-1) (Homo sapiens, UniProt O95497); assay: fluorescamine-based pantothenamide hydrolysis assay with recombinant pantetheinase; assay type: in vitro ADME; conditions: 200 µM compound, same conditions with water instead of enzyme
T1 construct: purchased Novoprotein Scientific Inc. (Short Hills, New Jersey, USA)
T1 sequence (O95497 22-513): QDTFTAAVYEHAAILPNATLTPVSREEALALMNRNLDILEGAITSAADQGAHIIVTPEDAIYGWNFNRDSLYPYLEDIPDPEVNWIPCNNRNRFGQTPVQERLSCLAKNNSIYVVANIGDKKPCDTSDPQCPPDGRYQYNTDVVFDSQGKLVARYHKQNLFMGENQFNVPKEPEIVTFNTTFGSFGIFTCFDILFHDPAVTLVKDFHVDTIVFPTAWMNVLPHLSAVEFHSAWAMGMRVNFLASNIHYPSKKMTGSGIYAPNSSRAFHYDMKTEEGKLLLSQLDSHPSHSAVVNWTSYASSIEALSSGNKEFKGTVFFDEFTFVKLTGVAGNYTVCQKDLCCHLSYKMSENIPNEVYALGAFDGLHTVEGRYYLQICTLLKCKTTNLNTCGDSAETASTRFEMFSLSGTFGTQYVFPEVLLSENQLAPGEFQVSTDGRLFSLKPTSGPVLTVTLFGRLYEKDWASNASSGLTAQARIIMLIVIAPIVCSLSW
Procedure: (§1) Hydrolysis of compound 12 to pantothenate and isobutylamine was measured using a modification of a fluorescence-based assay described previously for the measurement of N-acetyl-1-D-myo-inosityl-2-amino-2-deoxy-α-D-glucopyranoside deacetylase activity, [31]. The assay utilizes fluorescamine (4-phenylspiro-[furan-2(3H),1-phthalan]-3,3′-dione; a non-fluorescent molecule that reacts with primary amines to form a fluorescent product) for the detection of primary amines. Briefly, recombinant human pantetheinase (at a final concentration of 100 ng/mL), Albumax II (at a final concentration 0.6%, w/v), or an equivalent volume of water, was added to solutions (at 37°C) of 100 mM potassium phosphate, pH 7.5, 0.5 mM dithiothreitol, 0.01% (w/v) bovine serum albumin, 0.1% (v/v) DMSO, with or without pantothenamide (at a final concentration of 200 µM). At the appropriate time points, aliquots (30 µL) of the reaction mixtures were removed in duplicate and mixed with 10 µL 20% (v/v) trichloroacetic acid to terminate the reaction. […] The plate was then incubated at 37°C for 10 min before fluorescence was measured using a FLUOstar OPTIMA multidetection microplate reader from BMG LABTECH with excitation and emission wavelengths of 390 and 485 nm, respectively. The fluorescence detected was converted to the corresponding isobutylamine concentration using an isobutylamine standard curve. […]

Albumax II = assay: fluorescamine-based pantothenamide hydrolysis assay with Albumax II; assay type: in vitro ADME, bovine; conditions: 200 µM compound, Albumax II 0.6% (w/v), 37°C
Procedure: as §1

hydrolysis in the absence of pantetheinase [1]: not observed
time to completion of hydrolysis (Albumax II): ≤ 24 h
fraction of pantothenamide hydrolyzed during 6 h incubation (Albumax II; 6 h): over one third
Structure (SMILES): CC(C)CNC(=O)CCNC(=O)[C@H](O)C(C)(C)CO [Compound 12]
Inhibition of pantothenate phosphorylation at 100 μM (P. falciparum PanK): 95 ± 5%

Source: article PMC3566143, “Pantothenamides Are Potent, On-Target Inhibitors of Plasmodium falciparum Growth When Serum Pantetheinase Is Inactivated” (PLoS ONE, 2013)
